Source: patent US20230271964A1, “5-AMINO-8-(4-PYRIDYL)-[1,2,4]TRIAZOLO[4,3-C]PYRIMIDIN-3-ONE COMPOUNDS FOR USE AGAINST CANCER” (ASTRAZENECA AB, priority 2020, published 2023)

Legend:
[1] = target: human adenosine A2A receptor (Homo sapiens (Human), UniProt P29274); experiment: Adenosine receptor inhibition binding assay, [3H]ZM241385, HEK293 A2A receptor membranes; details: 1 nM [3H]ZM241385, HEK293-hA2A membranes, 25° C., 1 h; Ki from IC50 by Cheng-Prusoff
How it was run: (§1)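 Membranes from BacMam-transduced HEK293 cells (0.2 µg A2A; 1.4 µg A1) incubated 1 h at 25 °C with 1 nM radioligand; A2A in 50 mM Tris-HCl pH 7.4, A1 buffer adds 100 mM NaCl, 10 mM MgCl2. Nonspecific binding: 1 µM CGS 15943 (A2A) or 1 µM DPCPX (A1). Filtration, scintillation counting; IC50 converted to Ki via Cheng-Prusoff.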

[2] = target: human adenosine A1 receptor (Homo sapiens (Human), UniProt P30542); experiment: Adenosine receptor inhibition binding assay, [3H]DPCPX, A1 receptor membranes; details: 1 nM [3H]DPCPX, 25° C., 1 h; Ki from IC50 by Cheng-Prusoff
human adenosine A1 receptor, sequence (P30542 whole entry): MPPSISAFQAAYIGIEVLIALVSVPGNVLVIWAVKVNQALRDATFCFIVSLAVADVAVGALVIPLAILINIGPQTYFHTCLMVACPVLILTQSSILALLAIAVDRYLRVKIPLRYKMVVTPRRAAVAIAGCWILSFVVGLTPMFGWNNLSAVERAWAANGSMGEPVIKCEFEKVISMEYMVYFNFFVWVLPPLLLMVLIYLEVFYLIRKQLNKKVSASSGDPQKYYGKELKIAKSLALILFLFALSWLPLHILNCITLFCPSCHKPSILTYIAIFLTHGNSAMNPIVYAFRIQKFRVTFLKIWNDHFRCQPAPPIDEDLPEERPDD
How it was run: as §1

human CB1 receptor = human CB1 receptor (Homo sapiens (Human), UniProt P21554); experiment: CB1 receptor antagonism, agonist-induced cAMP modulation (HTRF) in transfected CHO cells; assay type: cell-based; details: read-out: Antag IC50
human CB1 receptor, sequence (P21554 whole entry): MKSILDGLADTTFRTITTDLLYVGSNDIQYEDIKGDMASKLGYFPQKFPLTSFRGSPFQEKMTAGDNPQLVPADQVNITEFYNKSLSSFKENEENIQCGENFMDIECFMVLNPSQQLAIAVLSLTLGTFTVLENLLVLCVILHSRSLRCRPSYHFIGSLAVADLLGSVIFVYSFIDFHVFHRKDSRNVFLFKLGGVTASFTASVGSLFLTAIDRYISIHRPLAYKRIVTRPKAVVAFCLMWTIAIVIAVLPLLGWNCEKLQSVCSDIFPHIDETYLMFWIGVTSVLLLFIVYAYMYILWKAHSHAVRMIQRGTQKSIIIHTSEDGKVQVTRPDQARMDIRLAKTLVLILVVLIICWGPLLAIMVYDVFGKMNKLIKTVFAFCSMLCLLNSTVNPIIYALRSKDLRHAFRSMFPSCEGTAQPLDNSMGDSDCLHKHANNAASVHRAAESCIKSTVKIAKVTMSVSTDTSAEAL
Protocol: Receptor antagonism: Evaluation of the antagonist activity of compounds at the human CB1 receptor expressed in transfected CHO cells, determined by measuring their effects on agonist-induced cAMP modulation using the HTRF detection method.
Thereafter, the reference agonist CP 55940 and the adenylyl cyclase activator NKH 477 are added at respective final concentrations of 3 nM and 3 µM.
For basal control measurements, CP 55940 is omitted from the wells containing 3 µM AM 281.
Following 20 min incubation at 37° C., the cells are lysed and the fluorescence acceptor (D2-labeled cAMP) and fluorescence donor (anti-cAMP antibody labeled with europium cryptate) are added.
After 60 min at room temperature, the fluorescence transfer is measured at λex=337 nm and λem=620 and 665 nm using a microplate reader (Rubystar, BMG). The cAMP concentration is determined by dividing the signal measured at 665 nm by that measured at 620 nm (ratio).
The standard reference antagonist is AM 281, which is tested in each experiment at several concentrations to generate a concentration-response curve from which its IC50 value is calculated.

human adenosine A2A receptor, sequence (P29274 whole entry): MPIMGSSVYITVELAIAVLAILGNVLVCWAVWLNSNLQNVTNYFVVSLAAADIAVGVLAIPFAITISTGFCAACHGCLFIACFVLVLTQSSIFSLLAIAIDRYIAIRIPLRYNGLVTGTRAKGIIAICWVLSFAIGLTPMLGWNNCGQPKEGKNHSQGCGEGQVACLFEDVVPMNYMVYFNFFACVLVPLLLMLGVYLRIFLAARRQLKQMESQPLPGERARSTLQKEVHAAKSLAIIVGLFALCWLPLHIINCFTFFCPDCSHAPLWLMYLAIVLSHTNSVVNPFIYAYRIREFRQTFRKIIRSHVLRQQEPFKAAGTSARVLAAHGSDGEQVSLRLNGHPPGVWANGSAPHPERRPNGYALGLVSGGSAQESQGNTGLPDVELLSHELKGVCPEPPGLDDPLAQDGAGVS

SMILES	A2A pKi [1]	A1 pKi [2]	IC50 (human CB1 receptor)
Cc1cc(-c2c(-c3ccc(F)cc3)nc(N)n3c(=O)n(Cc4nc(C)oc4C)nc23)cc(CO)n1 [Example 1-53, 5-amino-2-[(2,5-dimethyloxazol-4-yl)methyl]-7-(4-fluorophenyl)-8-[2-(hydroxymethyl)-6-methyl-4-pyridyl]-[1,2,4]triazolo[4,3-c]pyrimidin-3-one]	9.2	6.5	> 100 µM
Cn1ccnc1Cn1nc2c(-c3cc(Cl)nc(CO)c3)c(-c3ccccc3)nc(N)n2c1=O [Example 1-55, 5-amino-8-[2-chloro-6-(hydroxymethyl)-4-pyridyl]-2-[(1-methylimidazol-2-yl)methyl]-7-phenyl-[1,2,4]triazolo[4,3-c]pyrimidin-3-one]	9.4	7.5	> 100 µM
Cn1ccnc1Cn1nc2c(-c3cc(Cl)nc(CO)c3)c(-c3ccc(F)cc3)nc(N)n2c1=O [Example 1-58, 5-amino-8-[2-chloro-6-(hydroxymethyl)-4-pyridyl]-7-(4-fluorophenyl)-2-[(1-methylimidazol-2-yl)methyl]-[1,2,4]triazolo[4,3-c]pyrimidin-3-one]	9.5	7.1	> 100 µM
COc1cc(-c2c(-c3ccccc3)nc(N)n3c(=O)n(Cc4nccn4C)nc23)cc(CO)n1 [Example 1-61, 5-amino-8-[2-(hydroxymethyl)-6-methoxy-4-pyridyl]-2-[(1-methylimidazol-2-yl)methyl]-7-phenyl-[1,2,4]triazolo[4,3-c]pyrimidin-3-one]	9.5	6.8	> 100 µM
Cc1ocnc1Cn1nc2c(-c3cc(CO)nc(C(F)(F)F)c3)c(-c3ccccc3)nc(N)n2c1=O [Example 1-66, 5-amino-8-[2-(hydroxymethyl)-6-(trifluoromethyl)-4-pyridyl]-2-[(5-methyloxazol-4-yl)methyl]-7-phenyl-[1,2,4]triazolo[4,3-c]pyrimidin-3-one]	9.7	7.5	> 100 µM
Cn1ccnc1Cn1nc2c(-c3cc(CO)nc(C(F)(F)F)c3)c(-c3ccccc3)nc(N)n2c1=O [Example 1-67, 5-amino-8-[2-(hydroxymethyl)-6-(trifluoromethyl)-4-pyridyl]-2-[(1-methylimidazol-2-yl)methyl]-7-phenyl-[1,2,4]triazolo[4,3-c]pyrimidin-3-one]	10.0	8.0	> 100 µM
Cc1cc(-c2c(-c3ccccc3)nc(N)n3c(=O)n(C(CN)C4CCOC4)nc23)cc(C)n1 (stereo not drawn) [Example 2-15, 5-amino-2-(2-amino-1-tetrahydrofuran-3-yl-ethyl)-8-(2,6-dimethyl-4-pyridyl)-7-phenyl-[1,2,4]triazolo[4,3-c]pyrimidin-3-one]	7.5	5.7	> 100 µM
Cc1cc(-c2c(-c3ccccc3)nc(N)n3c(=O)n(C[C@@H]4CCCO4)nc23)cc(CO)n1 [Example 2-28, 5-amino-8-[2-(hydroxymethyl)-6-methyl-4-pyridyl]-7-phenyl-2-[[(2S)-tetrahydrofuran-2-yl]methyl]-[1,2,4]triazolo[4,3-c]pyrimidin-3-one]	9.1	6.5	> 100 µM
Cc1cc(-c2c(-c3ccccc3)nc(N)n3c(=O)n(C[C@H]4CCCO4)nc23)cc(CO)n1 [Example 2-29, 5-amino-8-[2-(hydroxymethyl)-6-methyl-4-pyridyl]-7-phenyl-2-[[(2R)-tetrahydrofuran-2-yl]methyl]-[1,2,4]triazolo[4,3-c]pyrimidin-3-one]	9.3	6.4	> 100 µM
